In patent US20130079345A1, “[…] ACTIVE DISUBSTITUTED TRIAZINE DERIVATIVES” (BAYER INTELLECTUAL PROPERTY GMBH, priority 2010, published 2013):
Counter-ions that a name gives are not always drawn.

Experiments:
CDK9/Cyclin T1 = target: T1, CDK9/Cyclin T1 (Homo sapiens, UniProt P50750); assay: LanthaScreen Eu Kinase Binding Assay, CDK9/Cyclin T1; conditions: tracer 236, read-out: Affinity (Kd) CDK9/Cyclin T1
T1 construct: purchased Invitrogen
Procedure, shortened: (§1)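 TR-FRET competition binding with Alexa Fluor 647 tracer and Eu-anti-GST antibody; e.g. CDK2/Cyclin A 15 nM with tracer 236 60 nM (working solutions). Kinase buffer: HEPES 20 mM pH 8.0, MgCl2 10 mM, DTT 1 mM, Brij-35 0.01%; 8-point 1:3 series, 1 h at room temperature; Kd from sigmoidal dose-response curves.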

CDK9/Cyclin K = target: T2, CDK9/Cyclin K (Homo sapiens, UniProt P50750); assay: LanthaScreen Eu Kinase Binding Assay, CDK9/Cyclin K; conditions: tracer 236, read-out: Affinity (Kd) CDK9/Cyclin K
T2 construct: purchased Invitrogen
T2 sequence (P50750 whole entry): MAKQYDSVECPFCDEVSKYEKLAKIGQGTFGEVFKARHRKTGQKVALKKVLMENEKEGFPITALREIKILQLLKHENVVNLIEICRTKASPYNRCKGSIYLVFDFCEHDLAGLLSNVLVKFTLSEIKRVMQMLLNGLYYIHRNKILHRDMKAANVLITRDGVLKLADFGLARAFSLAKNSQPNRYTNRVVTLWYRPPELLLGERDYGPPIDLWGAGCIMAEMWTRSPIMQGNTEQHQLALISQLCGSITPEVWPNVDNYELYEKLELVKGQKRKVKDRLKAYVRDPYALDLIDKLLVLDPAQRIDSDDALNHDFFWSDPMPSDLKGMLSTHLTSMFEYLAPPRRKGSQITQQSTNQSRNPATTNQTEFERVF
T2 sequence (O75909 whole entry partner): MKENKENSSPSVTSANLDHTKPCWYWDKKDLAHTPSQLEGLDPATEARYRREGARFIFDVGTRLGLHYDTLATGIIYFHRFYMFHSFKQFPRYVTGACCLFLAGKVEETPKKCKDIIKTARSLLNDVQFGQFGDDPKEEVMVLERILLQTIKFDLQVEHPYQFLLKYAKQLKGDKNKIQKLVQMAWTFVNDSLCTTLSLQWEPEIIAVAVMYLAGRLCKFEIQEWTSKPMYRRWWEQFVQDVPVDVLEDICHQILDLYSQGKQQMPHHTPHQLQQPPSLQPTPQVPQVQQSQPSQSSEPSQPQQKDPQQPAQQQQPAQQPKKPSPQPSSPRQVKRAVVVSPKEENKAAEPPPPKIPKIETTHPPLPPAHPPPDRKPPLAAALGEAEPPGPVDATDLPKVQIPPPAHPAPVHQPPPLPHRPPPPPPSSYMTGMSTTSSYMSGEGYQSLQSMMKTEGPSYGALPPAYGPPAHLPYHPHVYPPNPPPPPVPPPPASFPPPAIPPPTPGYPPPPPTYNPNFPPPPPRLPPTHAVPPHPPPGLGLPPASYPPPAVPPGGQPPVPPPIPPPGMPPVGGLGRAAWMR
Procedure, shortened: as §1

CDK2/CyclinA [1] = target: T3, CDK2/CyclinA (Homo sapiens, UniProt P24941); assay: LanthaScreen Eu Kinase Binding Assay, CDK2; conditions: tracer 236, read-out: Affinity (Kd) CDK2
T3 construct: purchased Proqinase
Procedure, shortened: as §1

CDK1/CyclinB1 = target: T4, CDK1/CyclinB1 (Homo sapiens, UniProt P06493); assay: Lance Ultra KinaSelect Assay, CDK1; type: biochemical; conditions: ATP 20 μM, read-out: Inhibition (IC50) CDK1
T4 construct: purchased Carna
T4 sequence (P06493 whole entry): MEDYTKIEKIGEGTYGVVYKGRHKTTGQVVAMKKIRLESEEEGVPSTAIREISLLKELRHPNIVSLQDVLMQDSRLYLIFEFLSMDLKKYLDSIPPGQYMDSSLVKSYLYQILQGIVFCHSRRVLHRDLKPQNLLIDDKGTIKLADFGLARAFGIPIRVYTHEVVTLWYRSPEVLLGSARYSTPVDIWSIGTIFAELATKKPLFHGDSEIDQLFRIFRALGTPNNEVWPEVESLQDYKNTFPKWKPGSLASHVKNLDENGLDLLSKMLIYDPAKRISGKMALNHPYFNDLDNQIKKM
T4 sequence (P14635 whole entry partner): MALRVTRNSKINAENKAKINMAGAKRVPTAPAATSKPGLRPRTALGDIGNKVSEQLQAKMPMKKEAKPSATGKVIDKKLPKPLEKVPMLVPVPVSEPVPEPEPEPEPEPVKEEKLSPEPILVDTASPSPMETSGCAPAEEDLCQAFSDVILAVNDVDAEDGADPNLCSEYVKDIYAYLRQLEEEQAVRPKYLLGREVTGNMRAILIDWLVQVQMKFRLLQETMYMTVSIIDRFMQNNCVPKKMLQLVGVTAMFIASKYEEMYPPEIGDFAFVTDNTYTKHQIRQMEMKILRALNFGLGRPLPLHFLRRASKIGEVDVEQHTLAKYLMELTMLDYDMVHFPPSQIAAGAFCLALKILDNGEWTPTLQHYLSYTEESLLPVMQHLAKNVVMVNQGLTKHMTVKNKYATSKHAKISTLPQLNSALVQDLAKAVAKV
Description: (§2) This protocol describes how the Lance Ultra KinaSelect Assay was performed to determine half maximal inhibitory concentration (IC50) of compounds of general formula (I) and CDK/Cyclin complexes. The principle behind this enzymatic assay is based upon the phosphorylation of the ULight-Peptide Substrat. It is detected by using a specific EU-labeled anti-phospho peptide antibody. The binding of the Eu-labeled anti-phospho peptide antibody to the phosphorylated U Light labeled peptide gives rise to a FRET-signal. Binding of an inhibitor to the kinase prevents phosphorylation of the ULight-MBP Substrat, resulting in a loss of FRET.
(§3) The compounds of general formula (I) summarized in Table 5 were diluted from a 10 mM DMSO stock solution 1:10 in a total volume of 15 μL DMSO. This compound predilution was then serial diluted 1:3 over 8 steps in DMSO and briefly spun down. Each compound solution was now diluted 1:20 in Enzymatic Buffer (HEPES: 50 mM, pH: 7.5; MgCl2: 10 mM; EGTA: 1 mM; DTT: 2 mM; Tween-20: 0.01%), mixed thoroughly and spun down. For every sample, 2 μL of the diluted compound were mixed with 6 μL CDK/Cyclin/Substrat solution and […] in a well of a small volume 384 well plate (Corning Incorporated, Corning, N.Y., USA; order no. 3673). […] For positive controls, in each well 2 μL of DMSO solution (1% final DMSO assay concentration) was mixed with 6 μL CDK/Cyclin/Substrat (appropriate final concentration see Table 3) and 2 μL Tracer ATP solution (appropriate final concentration see Table 3). Positive and negative controls were calculated from at least 8 different sample wells. The 384 well plates were mixed in a Teleshaker plate mixer (Beckman Coulter, Brea, Calif., USA) at 2000 rpm for 40 sec, and incubated for 1 h at room temperature. Before reading, 10 μL detection buffer (Lance Detection Buffer 1×; EDTA: […]; Eu-Anti-P-MBP: see Table 3) was added. The FRET signal was measured at 340 nm excitation, 665 nm and 615 nm emission (for the kinase tracer and LanthaScreen Eu-AB, respectively) with an Envision spectrophotometer (Perkin Elmer, Waltham, Mass., USA) with 50 μs delay and 300 μs integration time. IC50 values were determined from the sigmoidal dose response curves with the software Quattro Workflow (Quattro GmbH, Munich, Germany).

CDK2/CyclinA [2] = target: T3, CDK2/CyclinA; assay: Lance Ultra KinaSelect Assay, CDK2; type: biochemical; conditions: ATP 3 μM, read-out: Inhibition (IC50) CDK2
Description: as §2, §3

CDK6/CyclinD3 = target: T5, CDK6/CyclinD3 (Homo sapiens, UniProt Q00534); assay: Lance Ultra KinaSelect Assay, CDK6; type: biochemical; conditions: read-out: Inhibition (IC50) CDK6
T5 construct: purchased Carna
T5 sequence (Q00534 whole entry): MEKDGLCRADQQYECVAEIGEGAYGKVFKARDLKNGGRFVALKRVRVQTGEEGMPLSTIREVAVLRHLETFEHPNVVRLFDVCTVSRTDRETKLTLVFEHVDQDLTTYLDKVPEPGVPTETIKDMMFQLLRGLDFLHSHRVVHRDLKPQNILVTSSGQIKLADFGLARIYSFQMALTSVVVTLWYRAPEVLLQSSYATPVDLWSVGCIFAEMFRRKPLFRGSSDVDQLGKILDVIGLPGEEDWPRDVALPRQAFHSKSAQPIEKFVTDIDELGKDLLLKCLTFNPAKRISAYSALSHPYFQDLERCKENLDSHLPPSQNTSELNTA
T5 sequence (P30281 whole entry partner): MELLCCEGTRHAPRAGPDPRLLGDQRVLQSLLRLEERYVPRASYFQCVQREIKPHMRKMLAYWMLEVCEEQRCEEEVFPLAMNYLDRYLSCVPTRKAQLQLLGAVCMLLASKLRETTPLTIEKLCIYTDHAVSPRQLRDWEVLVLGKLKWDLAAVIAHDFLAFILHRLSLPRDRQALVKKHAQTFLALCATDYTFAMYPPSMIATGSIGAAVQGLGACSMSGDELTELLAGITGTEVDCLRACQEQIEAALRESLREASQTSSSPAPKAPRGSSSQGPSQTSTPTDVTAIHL
Description: as §2, §3

CDK7/CyclinH/Mat1 = target: T6, CDK7/CyclinH/Mat1 (Homo sapiens, UniProt P50613); assay: Lance Ultra KinaSelect Assay, CDK7; type: biochemical; conditions: ATP 25 μM, read-out: Inhibition (IC50) CDK7
T6 construct: purchased Carna Biosciences
T6 sequence (P50613 whole entry): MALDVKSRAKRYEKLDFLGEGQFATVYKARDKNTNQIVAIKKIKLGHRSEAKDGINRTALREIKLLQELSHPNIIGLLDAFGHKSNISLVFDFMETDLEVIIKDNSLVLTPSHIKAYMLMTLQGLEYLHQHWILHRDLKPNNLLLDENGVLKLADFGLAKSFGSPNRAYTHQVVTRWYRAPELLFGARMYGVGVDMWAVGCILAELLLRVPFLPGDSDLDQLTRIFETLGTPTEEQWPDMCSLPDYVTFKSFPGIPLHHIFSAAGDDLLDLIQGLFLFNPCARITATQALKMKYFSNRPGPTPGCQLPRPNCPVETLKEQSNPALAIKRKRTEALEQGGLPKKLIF
T6 sequence (P51946 whole entry partner): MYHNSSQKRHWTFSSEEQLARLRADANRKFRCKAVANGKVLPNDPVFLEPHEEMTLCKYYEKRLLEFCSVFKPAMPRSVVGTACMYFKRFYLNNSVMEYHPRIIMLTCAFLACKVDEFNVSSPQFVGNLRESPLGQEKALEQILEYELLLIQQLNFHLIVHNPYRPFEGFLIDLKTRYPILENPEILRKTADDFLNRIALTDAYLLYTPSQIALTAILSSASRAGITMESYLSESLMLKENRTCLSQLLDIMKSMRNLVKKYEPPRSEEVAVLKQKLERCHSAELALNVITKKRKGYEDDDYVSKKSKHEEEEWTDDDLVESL
T6 sequence (P51948 whole entry partner): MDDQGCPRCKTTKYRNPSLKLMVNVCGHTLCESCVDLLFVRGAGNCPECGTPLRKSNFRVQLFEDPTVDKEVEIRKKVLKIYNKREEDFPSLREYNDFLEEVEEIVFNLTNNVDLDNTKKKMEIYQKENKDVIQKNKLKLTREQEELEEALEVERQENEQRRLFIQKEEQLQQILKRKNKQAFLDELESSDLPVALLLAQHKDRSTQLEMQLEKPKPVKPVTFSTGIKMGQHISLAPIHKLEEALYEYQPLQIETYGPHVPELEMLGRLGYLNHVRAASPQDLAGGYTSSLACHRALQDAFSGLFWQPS
Description: as §2, §3

T1 sequence (P50750 whole entry): as the sequence (P50750 whole entry) above
T1 sequence (O60563 whole entry partner): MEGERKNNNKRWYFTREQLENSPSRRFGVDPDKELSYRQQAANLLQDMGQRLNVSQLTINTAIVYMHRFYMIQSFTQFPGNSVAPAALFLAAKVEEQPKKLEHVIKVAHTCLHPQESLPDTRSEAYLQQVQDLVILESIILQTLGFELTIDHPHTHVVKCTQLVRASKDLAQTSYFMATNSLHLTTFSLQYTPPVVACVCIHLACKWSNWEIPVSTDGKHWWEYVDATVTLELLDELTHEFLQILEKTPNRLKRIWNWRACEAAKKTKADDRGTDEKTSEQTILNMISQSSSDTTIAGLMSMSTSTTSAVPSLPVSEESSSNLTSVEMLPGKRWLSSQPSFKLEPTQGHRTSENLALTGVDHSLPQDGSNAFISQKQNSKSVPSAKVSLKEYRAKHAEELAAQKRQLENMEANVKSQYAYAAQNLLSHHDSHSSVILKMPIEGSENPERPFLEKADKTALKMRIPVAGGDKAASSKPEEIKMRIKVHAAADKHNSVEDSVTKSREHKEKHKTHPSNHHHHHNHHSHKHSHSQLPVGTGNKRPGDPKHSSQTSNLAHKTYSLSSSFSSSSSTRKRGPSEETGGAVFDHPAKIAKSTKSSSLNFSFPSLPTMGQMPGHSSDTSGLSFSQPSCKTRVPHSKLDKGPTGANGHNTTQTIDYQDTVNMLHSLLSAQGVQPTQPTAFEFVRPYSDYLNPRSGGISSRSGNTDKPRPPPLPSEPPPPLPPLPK

Compound | Kd (CDK9/Cyclin T1) [nM] | Kd (CDK9/Cyclin K) [nM] | Kd (CDK2/CyclinA [1]) [nM] | IC50 (CDK1/CyclinB1) [nM] | IC50 (CDK2/CyclinA [2]) [nM] | IC50 (CDK6/CyclinD3) [nM] | IC50 (CDK7/CyclinH/Mat1) [nM]
COc1cc(F)ccc1-c1ncnc(Nc2cccc(CS(N)(=O)=O)c2)n1 [Compound B2, 3-[(4-(4-Fluoro-2-methoxyphenyl)-1,3,5-triazin-2-yl)amino]benzenemethanesulfonamide] | 5 |  |  |  |  |  | 
NS(=O)(=O)Cc1cccc(Nc2ncnc(-c3ccccc3Oc3ccccc3)n2)c1 [Compound B14, 1-(3-{[4-(2-phenoxyphenyl)-1,3,5-triazin-2-yl]amino}phenyl)methanesulfonamide] | 25.5 | 26.4 | 3450 |  |  |  | 
NS(=O)(=O)Cc1cccc(Nc2ncnc(-c3ccccc3OCc3ccccc3)n2)c1 [Compound B13, 3-[(4-(2-Benzyloxyphenyl)-1,3,5-triazin-2-yl)amino]benzenemethanesulfonamide] | 5 |  | 687 |  |  |  | 
NS(=O)(=O)Cc1cccc(Nc2ncnc(-c3ccccc3OCc3ccccc3)n2)c1 [B13′, 3-[(4-(2-Benzyloxyphenyl)-1,3,5-triazin-2-yl)amino]benzenemethanesulfonamide trifluoroacetic acid salt] | 5.5 | 5 | 88 | 3400 | 1770 | > 10000 | > 10000
COc1cnccc1-c1ncnc(Nc2cccc(CS(N)(=O)=O)c2)n1 [Compound B19, 3-[(4-(3-Methoxypyridin-4-yl)-1,3,5-triazin-2-yl)amino]benzenemethanesulfonamide] | 7 | 11.5 |  |  |  |  | 
COc1ccccc1-c1ncnc(Nc2cccc(NS(C)(=O)=O)c2)n1 [Compound K1, N-[3-((4-(2-Methoxyphenyl)-1,3,5-triazin-2-yl)amino)phenyl]-methanesulfonamide] | 38.5 | 35.9 | 283 | > 10000 | 826 | > 10000 | > 10000
COc1cc(F)ccc1-c1ncnc(Nc2cccc(CCS(N)(=O)=O)c2)n1 [Compound D2, 2-[3-((4-(4-Fluoro-2-methoxyphenyl)-1,3,5-triazin-2-yl)amino)phenyl]ethanesulfonamide] | 9.5 | 5 | < 5 | > 10000 | 423 | > 10000 | > 10000
CCCS(=O)(=O)Nc1cccc(Nc2ncnc(-c3ccccc3OC)n2)c1 [Compound L1, N-[3-((4-(2-Methoxyphenyl)-1,3,5-triazin-2-yl)amino)phenyl]-propanesulfonamide] | 45.5 |  |  | > 10000 | > 10000 | > 10000 | > 10000
COc1ccccc1-c1ncnc(Nc2cccc(CS(N)(=O)=O)c2)n1 [B1′, 3-[(4-(2-Methoxyphenyl)-1,3,5-triazin-2-yl)amino]benzenemethanesulfonamide trifluoroacetic acid salt] | 7.6 | 48.7 | 798 | 12000 | 3080 | > 10000 | > 10000
NS(=O)(=O)Cc1cccc(Nc2ncnc(-c3ccccc3OCc3ccncc3)n2)c1 [Compound B16, 3-[(4-(2-((4-Pyridinyl)methoxy)phenyl)-1,3,5-triazin-2-yl)amino]benzenemethanesulfonamide] | < 5 | 5.7 | 1690 | 6770 | 1070 | > 10000 | > 10000
COc1ccccc1-c1ncnc(Nc2cccc(CS(N)(=O)=O)c2)n1 [Compound B1, 3-[(4-(2-Methoxyphenyl)-1,3,5-triazin-2-yl)amino]benzenemethanesulfonamide] | 5 |  |  |  |  |  | 
COc1cc(F)ccc1-c1ncnc(Nc2cccc(CS(N)(=O)=O)c2)n1 [B2′, 1-(3-{[4-(4-fluoro-2-methoxyphenyl)-1,3,5-triazin-2-yl]amino}phenyl)methanesulfonamide hydrochloride] | 5.6 |  | 207 |  |  |  | 
COc1ccccc1-c1ncnc(Nc2ccccc2)n1 [Compound P1, 4-(2-Methoxyphenyl)-N-phenyl-1,3,5-triazine-2-amine] | 126 |  | 709 |  |  |  | 
CCOc1ccccc1-c1ncnc(Nc2cccc(CS(N)(=O)=O)c2)n1 [Compound B12, 3-[(4-(2-Ethoxyphenyl)-1,3,5-triazin-2-yl)amino]benzenemethanesulfonamide] | 10 | 11.1 | 2350 | 11500 | 2930 | > 10000 | > 10000
COc1ccccc1-c1ncnc(Nc2cccc([N+](=O)[O-])c2)n1 [Compound H1, 4-(2-Methoxyphenyl)-N-(3-nitrophenyl)-1,3,5-triazine-2-amine] | 17.8 | 15.8 | 68 |  |  |  | 
COc1cc(F)ccc1-c1ncnc(Nc2cccc(CS(N)(=O)=O)c2)n1 [B2″, 1-(3-{[4-(4-fluoro-2-methoxyphenyl)-1,3,5-triazin-2-yl]amino}phenyl)methanesulfonamide trifluoroacetic acid salt] | 6.6 | 5 |  | 899 | 568 | > 10000 | > 10000
COc1cccc(F)c1-c1ncnc(Nc2cccc(CS(N)(=O)=O)c2)n1 [Compound B4, 3-[(4-(6-Fluoro-2-methoxyphenyl)-1,3,5-triazin-2-yl)amino]benzenemethanesulfonamide] | 54 | 20.9 | 704 | 5680 | 1440 | > 10000 | > 10000
COc1ccccc1-c1ncnc(Nc2cccc(S(N)(=O)=O)c2)n1 [C1′, 3-[(4-(2-Methoxyphenyl)-1,3,5-triazin-2-yl)amino]benzenesulfonamide trifluoroacetic acid salt] | < 5 | 5 | 220 | 1350 | 781 | > 10000 | > 10000
COc1ccccc1-c1ncnc(Nc2cccc(CCS(N)(=O)=O)c2)n1 [Compound D1, 2-[3-((4-(2-Methoxyphenyl)-1,3,5-triazin-2-yl)amino)phenyl]ethanesulfonamide] | 32.8 | 99.5 | 310 | 2580 | 515 | > 10000 | > 10000
COc1ccc(F)cc1-c1ncnc(Nc2cccc(CS(N)(=O)=O)c2)n1 [Compound B3, 3-[(4-(5-Fluoro-2-methoxyphenyl)-1,3,5-triazin-2-yl)amino]benzenemethanesulfonamide] | 16 | 5 | 375 |  |  |  | 
COc1cc(Cl)ccc1-c1ncnc(Nc2cccc(CS(N)(=O)=O)c2)n1 [Compound B6, 3-[(4-(4-Chloro-2-methoxyphenyl)-1,3,5-triazin-2-yl)amino]benzenemethanesulfonamide] | 11 | 12.5 |  | > 10000 | > 10000 | > 10000 | > 10000
